According to article PMC5920109, “Identification, Expression, and Regulation of an Omega Class Glutathione S-transferase in Rhopalosiphum padi (L.) (Hemiptera: Aphididae) Under Insecticide Stress” (Frontiers in Physiology, 2018):

Target: T1, RpGSTO1 (Rhopalosiphum padi, UniProt A0A2U9PFG6)
T1 construct: pET-28a His-tag (tag removal not mentioned), E. coli BL21(DE3), BamHI/HindIII
T1 sequence (A0A2U9PFG6 1-239): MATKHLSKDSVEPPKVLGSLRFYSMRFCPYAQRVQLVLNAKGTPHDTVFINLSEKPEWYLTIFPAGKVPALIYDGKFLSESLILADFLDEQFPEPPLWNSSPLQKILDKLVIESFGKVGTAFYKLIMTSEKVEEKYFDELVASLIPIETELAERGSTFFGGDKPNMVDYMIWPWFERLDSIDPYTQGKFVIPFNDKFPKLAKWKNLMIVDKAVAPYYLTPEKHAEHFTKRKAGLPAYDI
Assay: spectrophotometric GSH conjugation at […] nm, double reciprocal plot
Format: biochemical
Conditions: 5 mM GSH; 0.02-0.14 mM CDNB; pH 7.0, 0.1 M sodium phosphate

## O=[N+]([O-])c1ccc(Cl)c([N+](=O)[O-])c1 [CDNB, 1-chloro-2,4-dinitrobenzene]
  Km: 120 µM
